Measurements taken from PMC8147984, “Effects of Sponge-Derived Alkaloids on Activities of the Bacterial α-D-Galactosidase and Human Cancer Cell α-N-Acetylgalactosaminidase” (Biomedicines, 2021).

How the values were obtained:
[1] = system: α-NaGalase in human colorectal adenocarcinoma cell line DLD-1; test: Residual α-NaGalase activity (expression) in lysate of DLD-1 cells treated with alkaloids; type: cell-based; settings: DLD-1 cells treated with 5 μM for 24 h
Experimental: DLD-1cells (5.0 × 10^5) were seeded in […] for 24 h at 37 °C in a 5% CO2 incubator. Then the cells were treated with compounds 1–9 at concentrations ranging from 0 to 20 μM for an additional 24 h. Then the cells were harvested using 0.02% EDTA, after this 3 mL of cold 15 mM Tris–HCl (pH 7.0) was added.
Every 3–4 days cells were rinsed in phosphate buffered PBS, detached from the tissue culture flask by 1× trypsin/EDTA solution, harvested with RPMI-1640 medium and centrifuge at 500 rpm for 3 min. The culture media was discarded and cells pellet was resuspended in EDTA/Tris solution and frozen at −80 °C.
Frozen lysates of cancer cells in the 15 mM Tris buffer, pH 7.0 containing 0.02% EDTA, defrosted and sonicated 10 times during 1 min with a break of 1 min. To remove the cellular detritus, the cell homogenate was centrifuged at 4 °C, 10,000 rpm, 30 min. The supernatant proteins were precipitated with 35% ammonium sulfate, kept during four hours at 4 °C to form a pellet. The protein pellet was collected by centrifugation (4 °C, 10,000 rpm, 30 min) and dissolved in 0.05 M sodium citrate buffer, pH 5.0. The supernatant proteins were precipitated with 75% ammonium sulfate, kept overnight at 4 °C to form a pellet. The protein pellet was collected by centrifugation (4 °C, 10,000 rev/min, 30 min) and dissolved in 0.05 M sodium citrate buffer, pH 5.0. Both extracts were dialyzed against the same buffer, centrifuged to separate the insoluble precipitate. α-NaGalase activity was tested in both extracts and was found only in the protein fraction precipitated with 75% ammonium sulfate. This supernatant was used in further work as partly purified enzyme. The purification quality was controlled by 12% Laemmli-SDS-PAGE-electrophoresis.
The activity of α-PsGal and α-NaGalase were determined by increasing the amount of p-nithrophenol (pNP). To assay the α-NaGalase activity 0.05 mL of cell extract and 0.1 mL of substrate pNPNA-α-Gal (8.8 mM) in 0.05 M sodium citrate buffer, pH 5.0 were placed in cells of 96-well plate and incubated at 37 °C for 30 min. The mixtures containing 0.05 mL of an enzyme solution and 0.1 mL of a substrate solution (3.3 mM) in 0.05 M sodium phosphate buffer (pH 7.0) were incubated at 20 °C during 5 min for determination of α-PsGal standard activity. […]
Absorbance was measured at 400 nm. Results were read with a computer program Gen5 and treated with ExCel computer program. […] Specific activity (A) was calculated as the enzyme activity (U) per 1 mg of protein. […] Residual activity (%) was calculated with formula: Residual activity (%) = v/v0 ×100, where v is the initial reaction rate of enzymes under the action of an inhibitor or other factors, v0 is the initial reaction rate of enzymes in the absence of the influence of any factors. […]

[2] = biological target: T1, α-D-galactosidase (α-PsGal) (Pseudoalteromonas sp. KMM 701, UniProt Q19AX0); test: Irreversibility of α-PsGal inhibition (dialysis experiment); type: biochemical; settings: dialysis against buffer for 60 h at 4 °C; activity did not recover
T1 sequence (Q19AX0 1-710): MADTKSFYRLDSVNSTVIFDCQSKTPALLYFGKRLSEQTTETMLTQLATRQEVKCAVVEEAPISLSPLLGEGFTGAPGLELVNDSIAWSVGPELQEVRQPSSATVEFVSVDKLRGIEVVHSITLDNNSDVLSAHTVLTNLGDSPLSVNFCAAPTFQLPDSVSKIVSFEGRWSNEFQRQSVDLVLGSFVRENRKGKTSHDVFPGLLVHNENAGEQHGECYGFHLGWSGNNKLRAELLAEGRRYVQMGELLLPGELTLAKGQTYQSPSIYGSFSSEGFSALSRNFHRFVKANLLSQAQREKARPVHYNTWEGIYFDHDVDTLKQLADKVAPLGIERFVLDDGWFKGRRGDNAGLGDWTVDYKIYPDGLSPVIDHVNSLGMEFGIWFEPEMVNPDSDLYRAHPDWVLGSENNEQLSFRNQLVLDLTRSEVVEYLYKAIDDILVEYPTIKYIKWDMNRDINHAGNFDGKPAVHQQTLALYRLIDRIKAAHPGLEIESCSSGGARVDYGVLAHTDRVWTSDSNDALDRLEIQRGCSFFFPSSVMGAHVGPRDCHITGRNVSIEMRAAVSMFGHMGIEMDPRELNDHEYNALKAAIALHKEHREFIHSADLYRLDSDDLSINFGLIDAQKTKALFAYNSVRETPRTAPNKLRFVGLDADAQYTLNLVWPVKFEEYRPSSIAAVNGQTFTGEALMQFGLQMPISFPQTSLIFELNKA
Experimental: To determine the reversibility of the α-PsGal activity inhibition by alkaloids 2, 3, 8, and 9 15 µL of 0.625 mM aqueous solution of the compounds 2 and 3 or 6 µL of 2.5 mM ethanol solution of the compound 8 and 9 were added to 75 µL of the enzyme solution in 0.05 M sodium phosphate buffer (pH 7.0). After 30 min of the mixture incubation the aliquot of 30 µL was taken and 120 µL of 3.3 mM pNPG solution were added to initiate the reaction; the reaction was stopped by addition of 150 µL of 1M Na2CO3. The α-D-galactosidase activity was determined, as described above. The remaining reaction mixture was dialyzed against 1 L of 0.02 M sodium phosphate buffer (pH 7.0) for 60 h at 4 °C. The buffer was changed 3 times during the dialysis. The enzyme activity was determined, as described above. A sample of α-PsGal treated with H2O or EtOH in the absence of the inhibitor (75 µL of the enzyme solution and 15 µL of H2O or 6 µL of EtOH, respectively) was dialyzed and used as a control for determination of the initial activity. The experiment was carried out in two replicates. The residual activity was calculated as described above.

[3] = biological target: T1, α-D-galactosidase (α-PsGal); test: Inhibitory potency on recombinant α-PsGal (residual activity); type: biochemical; settings: for Residual activity v/v0 (%) of the α-PsGal: preincubated 30 min, 20 °C, pH 7.0
Experimental: The recombinant wild-type α-D-galactosidase (α-PsGal) was produced as described earlier. The plasmid DNA pET-40b(+) containing insertion of the gene from the marine bacterium Pseudoalteromonas sp. KMM 701 encoding α-PsGal was transformed in the Escherichia coli strain Rosetta (DE3). Heterological expression was carried out at optimal conditions as described earlier. Purification of the recombinant […] was performed, according to described procedures. The purification quality was controlled by 12% Laemmli-SDS-PAGE-electrophoresis.
The activity of α-PsGal and α-NaGalase were determined by increasing the amount of p-nithrophenol (pNP). To assay the α-NaGalase activity 0.05 mL of cell extract and 0.1 mL of substrate pNPNA-α-Gal (8.8 mM) in 0.05 M sodium citrate buffer, pH 5.0 were placed in cells of 96-well plate and incubated at 37 °C for 30 min. The mixtures containing 0.05 mL of an enzyme solution and 0.1 mL of a substrate solution (3.3 mM) in 0.05 M sodium phosphate buffer (pH 7.0) were incubated at 20 °C during 5 min for determination of α-PsGal standard activity. The reactions were stopped by the addition of 0.15 mL of 1 M Na2CO3 solution.
Absorbance was measured at 400 nm. Results were read with a computer program Gen5 and treated with ExCel computer program. The unit of standard activity (U) was defined as the amount of the enzyme catalyzing the formation of 1 µmol of p-nitrophenol (ε400 = 18,300 M^−1 cm^−1) per 1 min under the conditions indicated. Specific activity (A) was calculated as the enzyme activity (U) per 1 mg of protein. All calculations were based on reactions with consumption of 10% of the chromogenic substrate. The protein concentrations were estimated by the Bradford method with BSA as a standard. Residual activity (%) was calculated with formula: Residual activity (%) = v/v0 ×100, where v is the initial reaction rate of enzymes under the action of an inhibitor or other factors, v0 is the initial reaction rate of enzymes in the absence of the influence of any factors. Buffer solutions of α-PsGal (0.1 U/mL) and α-NaGalase (0.01 U/mL) were used in the further experiments.
In the control sample, 5 μL of water or 2 μL of EtOH were added to 25 μL of enzyme solution. The enzyme reaction was initiated by adding 120 μL of the substrate pNP-α-Gal (3.3 mM) for α-PsGal or pNPNA-α-Gal (8.8 mM) for α-NaGalase in the respective buffer solutions. After 10 min for α-PsGal or 60 min for α-NaGalase the reaction was stopped by adding 150 μL of 1 M Na2CO3. The amount of pNP was quantified by spectrophotometric detection at 400 nm. Results were evaluated as the percent of residual activity as described above.

[4] = system: DLD-1 cells; test: MTS cytotoxic activity assay on DLD-1 cells; type: cell-based, human
Experimental: DLD-1 cells (8 × 10^3/200 μL) were seeded in 96-well plates for 24 h at 37 °C in a 5% CO2 incubator. The cells were treated with compounds 1–9 at concentrations ranging from 0 to 20 μM for an additional 24 h. Subsequently, cells were incubated with 15 μL MTS (3-(4,5-dimethylthiazol-2-yl)-5-(3-carboxymethoxyphenyl)-2-(4-sulfophenyl)-2H-tetrazolium) reagent for 3 h, and the absorbance in each well was measured at 490/630 nm using a microplate reader “Power Wave XS” (Bio Tek, Winooski, VT, USA). All the experiments were repeated three times, and the mean absorbance values were calculated. The results are expressed in absorbance by the compound’s treatment compared to the non-treated cells (control 1) and the compounds in medium (control 2). All the experiments were made in triplicate.

[5] = biological target: T1, α-D-galactosidase (α-PsGal); test: Kinetic studies of α-PsGal inactivation; type: biochemical; settings: pH 7.0, 20 °C; for Ki / kinact: Hill equation fit; for Ki: read-out: Ki, equilibrium inhibition constant; for kinact: read-out: kinact, inactivation rate constant (converted)
Experimental: The kinetic parameters Ki and kinact were determined by classic methods. The inactivation of α-PsGal was monitored by incubation of the enzyme with different concentrations of alkaloids in […] sodium phosphate buffer, pH 7.0, at 20 °C in total volume of 30 µL (25 µL and 5 µL of α-PsGal and alkaloids, respectively), which were placed in cells of 96 cells plate. After preincubation of enzyme-inhibitor mixture for 0.5, 5, 10, 15, 20, 25, or 30 min […] the fraction of remaining enzyme activity was measured as a function of time by addition to the inactivation mixture 120 µL of a solution of pNP-α-Gal (3.3 mM). The pseudo-first-order rate constant of inactivation (kobs) was determined for each inactivator concentration as the slope of the v/v0 dependence on the incubation time in semilogarithmic coordinates. The Excel software was used for these calculations. The second order rate constants for the inactivation process were determined by fitting the dependences of the kobs values on the concentration of the inactivators to the Hill or Michaelis–Menten equations. An analysis of the graphs and the choice of models for calculation of inhibition constants (Ki, mM) and inactivation rate constants (kinact, min^–1) were performed with the Origin computer software.

For COc1cc2ccnc3c2c(c1O)NC=C3 [Compound 3, 9-demethylaaptamine], the “expression of the enzyme α-NaGalase (residual activity of lysate cell α-NaGalase, control 100%)” value [1] was 57%, the “irreversibility of α-PsGal inhibition” value [2] was “irreversibly inactivate” and the “Residual activity v/v0 (%) of the α-PsGal” value (“Residual activity v/v0 (%)” for short) ([3]; compound concentration 1.67 mM) was 0 ^1%. For the same compound, the IC50 ([4]; Homo sapiens, DLD-1, 24 h, read-out: concentration that caused a 50% reduction in cell viability (IC50) of DLD-1 cells) was 17 ± 0.2 µM, the “n, Hill's coefficient of cooperativity” value [5] was 0.84 and the Ki [5] was 300 ± 77 µM. For the same compound, the kinact [5] was 0.00153 s⁻¹ and the “n, Hill's coefficient of cooperativity” value ([5]; listed as 9-demethylaaptamine(3)) was 0.84 ± 0.12.

For CN1CCc2cn(C)c3c2C1=CC(=O)C3=O [Compound 5, damirone A], the “inhibitory activity against α-PsGal (in words)” value (“inhibitory activity” for short) [3] was “no notable activity” and the “Residual activity v/v0 (%)” value ([3]; compound concentration 1.48 mM) was 87 ^2%.

CNCCc1cn(C)c2c1C(=O)c1c(-c3ccc(O)cc3)c[nH]c1C2=O [Compound 9, zyzzyanone A] was tested, and the “irreversibility of α-PsGal inhibition” value [2] was “irreversibly inactivate”, the “inhibitory activity” value [3] was “low inhibitory activity” and the “Residual activity v/v0 (%)” value ([3]; compound concentration 1.48 mM) was 0 ^2%. The “n, Hill's coefficient of cooperativity” value [5] was 4.1, the Ki [5] was 105 ± 9 µM and the kinact [5] was 0.000617 s⁻¹. For the same compound, the “n, Hill's coefficient of cooperativity” value ([5]; listed as zyzzyanone A (9)) was 4.10 ± 1.42.

With CN1CCc2c[nH]c3c2C1=CC(=O)C3=O [Compound 6, damirone B] the “expression of the enzyme α-NaGalase (residual activity of lysate cell α-NaGalase, control 100%)” value [1] was 52%, the “inhibitory activity” value [3] was “no notable activity” and the “Residual activity v/v0 (%)” value ([3]; compound concentration 1.48 mM) was 87 ^2%.

With COc1cc2ccnc3c2c(c1O)N(C)C=C3 [Compound 2, isoaaptamine] the “expression of the enzyme α-NaGalase (residual activity of lysate cell α-NaGalase, control 100%)” value [1] was 64%, the “irreversibility of α-PsGal inhibition” value [2] was “irreversibly inactivate” and the “Residual activity v/v0 (%)” value ([3]; compound concentration 1.67 mM) was 0 ^1%. The “cytotoxicity against DLD-1 cells” value ([4]; 24 h, dose up to 20 μM) was “weakly cytotoxic”, the “decrease in cell viability” value ([4]; DLD-1 cells, 24 h, at 20 μM) was 20% and the “n, Hill's coefficient of cooperativity” value [5] was 2.17. The Ki [5] was 2.7 ± 0.42 µM, the kinact [5] was 0.002 s⁻¹ and the “n, Hill's coefficient of cooperativity” value ([5]; listed as isoaaptamine (2)) was 2.17 ± 0.55.
